Assay results published in paper PMC12203311, “Design, synthesis, in silico and in vitro evaluation of pyrrole–indole hybrids as dual tubulin and aromatase inhibitors with potent anticancer activities” (RSC Advances, 2025).

How the values were obtained:
Assay in all cases: NCI60 five-dose screen
[1] = system: HL-60 (TB); format: cell-based; conditions: Homo sapiens, leukemia; for CC50: read-out: LC50 (the source's name)
[2] = system: A549/ATCC; format: cell-based; conditions: Homo sapiens, NSC lung cancer; for CC50: read-out: LC50 (the source's name)
[3] = system: EKVX; format: cell-based; conditions: Homo sapiens, NSC lung cancer; for CC50: read-out: LC50 (the source's name)
[4] = system: HOP-62; format: cell-based; conditions: Homo sapiens, HOP-62, NSC lung cancer; for CC50: read-out: LC50 (the source's name)
[5] = system: HOP-92; format: cell-based; conditions: Homo sapiens, HOP-92, NSC lung cancer; for CC50: read-out: LC50 (the source's name)
[6] = system: NCI-H23; format: cell-based; conditions: Homo sapiens, NCI-H23, NSC lung cancer; for CC50: read-out: LC50 (the source's name)
[7] = system: NCI-H322M; format: cell-based; conditions: Homo sapiens, NSC lung cancer; for CC50: read-out: LC50 (the source's name)
[8] = system: COLO 205; format: cell-based, human; conditions: Homo sapiens; for CC50: COLO 205, COLO 205, colon cancer, read-out: LC50 (the source's name); for GI50: COLO 205, colon cancer
[9] = system: HCT-15; format: cell-based; conditions: Homo sapiens, HCT-15, colon cancer; for CC50: read-out: LC50 (the source's name)
[10] = system: KM12; format: cell-based; conditions: Homo sapiens, KM12, colon cancer; for CC50: read-out: LC50 (the source's name)
[11] = system: SW-620; format: cell-based; conditions: Homo sapiens, SW-620, colon cancer; for CC50: read-out: LC50 (the source's name)
[12] = system: SF-268; format: cell-based; conditions: Homo sapiens, SF-268, CNS cancer; for CC50: read-out: LC50 (the source's name)
[13] = system: SF-295; format: cell-based; conditions: Homo sapiens, SF-295, CNS cancer; for CC50: read-out: LC50 (the source's name)
[14] = system: MALME-3M; format: cell-based; conditions: Homo sapiens, melanoma; for CC50: read-out: LC50 (the source's name)
[15] = system: SK-MEL-2; format: cell-based; conditions: Homo sapiens, SK-MEL-2, melanoma; for CC50: read-out: LC50 (the source's name)
[16] = system: SK-MEL-28; format: cell-based; conditions: Homo sapiens, SK-MEL-28, melanoma; for CC50: read-out: LC50 (the source's name)
[17] = system: UACC-62; format: cell-based; conditions: Homo sapiens, UACC-62, melanoma; for CC50: read-out: LC50 (the source's name)
[18] = system: IGROV1; format: cell-based; conditions: Homo sapiens, IGROV-1; IGROV1, ovarian cancer
[19] = system: OVCAR-3; format: cell-based; conditions: Homo sapiens, OVCAR-3, ovarian cancer; for CC50: read-out: LC50 (the source's name)
[20] = system: NCI/ADR-RES; format: cell-based, human; conditions: Homo sapiens, ovarian cancer; for CC50: read-out: LC50 (the source's name)
[21] = system: SK-OV-3; format: cell-based; conditions: Homo sapiens, SK-OV-3, ovarian cancer; for CC50: read-out: LC50 (the source's name)
[22] = system: A498; format: cell-based; conditions: Homo sapiens, A498, renal cancer; for CC50: read-out: LC50 (the source's name)
[23] = system: RXF 393; format: cell-based; conditions: Homo sapiens, RXF 393, renal cancer; for CC50: read-out: LC50 (the source's name)
[24] = system: SN12C; format: cell-based; conditions: Homo sapiens, renal cancer; for CC50: read-out: LC50 (the source's name)
[25] = system: TK-10; format: cell-based; conditions: Homo sapiens, TK-10, renal cancer; for CC50: read-out: LC50 (the source's name)
[26] = system: PC-3; format: cell-based; conditions: Homo sapiens, PC-3, prostate cancer; for CC50: read-out: LC50 (the source's name)
[27] = system: MDA-MB-231/ATCC; format: cell-based; conditions: Homo sapiens, breast cancer; for CC50: read-out: LC50 (the source's name)
[28] = system: HS 578T; format: cell-based; conditions: Homo sapiens, breast cancer; for CC50: read-out: LC50 (the source's name)
[29] = system: BT-549; format: cell-based; conditions: Homo sapiens, BT-549, breast cancer; for CC50: read-out: LC50 (the source's name)
[30] = system: T-47D; format: cell-based; conditions: Homo sapiens, T47D, breast cancer; for CC50: read-out: LC50 (the source's name)
[31] = system: MDA-MB-468; format: cell-based; conditions: Homo sapiens, MDA-MB-468, breast cancer; for CC50: read-out: LC50 (the source's name)

Structure (SMILES): O=C(N/N=C/c1ccc([N+](=O)[O-])[nH]1)c1[nH]c2ccc(Br)cc2c1-c1ccccc1 [Derivative 3p, (E)-5-Bromo-N′-((5-nitro-1H-pyrrol-2-yl)methylene)-3-phenyl-1H-indole-2-carbohydrazide]
- GI50 [1]: 0.374 µM
- CC50 [1]: > 100 µM
- GI50 [2]: 2.23 µM
- CC50 [2]: 44.9 µM
- GI50 [3]: 5.37 µM
- CC50 [3]: 45.7 µM
- GI50 [4]: 0.606 µM
- CC50 [4]: 39.5 µM
- GI50 [5]: 1.79 µM
- CC50 [5]: 47.3 µM
- GI50 [6]: 1.45 µM
- CC50 [6]: 35.4 µM
- GI50 [7]: 11 µM
- CC50 [7]: 53.3 µM
- CC50 [8]: 8.08 µM
- GI50 [8]: 1.52 µM
- GI50 [9]: 0.607 µM
- CC50 [9]: 35.7 µM
- GI50 [10]: 1.17 µM
- CC50 [10]: 34.2 µM
- GI50 [11]: 0.249 µM
- CC50 [11]: 48.4 µM
- GI50 [12]: 1.47 µM
- CC50 [12]: 44.2 µM
- GI50 [13]: 0.413 µM
- CC50 [13]: 29.9 µM
- GI50 [14]: 3.23 µM
- CC50 [14]: 56.2 µM
- GI50 [15]: 2.18 µM
- CC50 [15]: 36.5 µM
- GI50 [16]: 2.24 µM
- CC50 [16]: 43.5 µM
- GI50 [17]: 0.451 µM
- CC50 [17]: 40.9 µM
- GI50 [18]: 1.48 µM
- GI50 [19]: 0.602 µM
- CC50 [19]: 34.8 µM
- GI50 [20]: 0.285 µM
- CC50 [20]: 16.2 µM
- GI50 [21]: 2.95 µM
- CC50 [21]: 43 µM
- GI50 [22]: 2.6 µM
- CC50 [22]: 43.7 µM
- GI50 [23]: 0.411 µM
- CC50 [23]: 41.2 µM
- GI50 [24]: 1.24 µM
- CC50 [24]: 36.7 µM
- GI50 [25]: 12.2 µM
- CC50 [25]: 53.8 µM
- GI50 [26]: 1.2 µM
- CC50 [26]: 78.5 µM
- GI50 [27]: 2.14 µM
- CC50 [27]: 46.6 µM
- GI50 [28]: 0.27 µM
- CC50 [28]: 94.3 µM
- GI50 [29]: 1.52 µM
- CC50 [29]: 28.4 µM
- GI50 [30]: 2.4 µM
- CC50 [30]: 59.6 µM
- GI50 [31]: 0.873 µM
- CC50 [31]: 34.7 µM

Structure (SMILES): O=C(N/N=C/c1cc([N+](=O)[O-])c[nH]1)c1[nH]c2ccc(Br)cc2c1-c1ccccc1 [Derivative 3q, (E)-5-Bromo-N′-((4-nitro-1H-pyrrol-2-yl)methylene)-3-phenyl-1H-indole-2-carbohydrazide]
- GI50 [1]: 0.633 µM
- CC50 [1]: > 100 µM
- GI50 [2]: 1.79 µM
- CC50 [2]: > 100 µM
- GI50 [3]: > 100 µM
- CC50 [3]: > 100 µM
- GI50 [4]: 1.26 µM
- CC50 [4]: > 100 µM
- GI50 [5]: 11.6 µM
- CC50 [5]: > 100 µM
- GI50 [6]: 2.57 µM
- CC50 [6]: > 100 µM
- GI50 [7]: 46.4 µM
- CC50 [7]: > 100 µM
- CC50 [8]: > 100 µM
- GI50 [8]: 1.28 µM
- GI50 [9]: 0.504 µM
- CC50 [9]: > 100 µM
- GI50 [10]: 1.39 µM
- CC50 [10]: > 100 µM
- GI50 [11]: 0.38 µM
- CC50 [11]: > 100 µM
- GI50 [12]: 0.774 µM
- CC50 [12]: > 100 µM
- GI50 [13]: 0.623 µM
- CC50 [13]: > 100 µM
- GI50 [14]: 0.83 µM
- CC50 [14]: > 100 µM
- GI50 [15]: 1.3 µM
- CC50 [15]: > 100 µM
- GI50 [16]: 0.89 µM
- CC50 [16]: > 100 µM
- GI50 [17]: 0.538 µM
- CC50 [17]: > 100 µM
- GI50 [18]: 2.06 µM
- GI50 [19]: 0.397 µM
- CC50 [19]: > 100 µM
- GI50 [20]: 0.434 µM
- CC50 [20]: > 100 µM
- GI50 [21]: 3.14 µM
- CC50 [21]: > 100 µM
- GI50 [22]: 10.7 µM
- CC50 [22]: > 100 µM
- GI50 [23]: 0.734 µM
- CC50 [23]: > 100 µM
- GI50 [24]: 2.58 µM
- CC50 [24]: > 100 µM
- GI50 [25]: 76 µM
- CC50 [25]: > 100 µM
- GI50 [26]: 0.724 µM
- CC50 [26]: > 100 µM
- GI50 [27]: 17.4 µM
- CC50 [27]: > 100 µM
- GI50 [28]: 0.486 µM
- CC50 [28]: > 100 µM
- GI50 [29]: 2.47 µM
- CC50 [29]: > 100 µM
- GI50 [30]: 2.21 µM
- CC50 [30]: > 100 µM
- GI50 [31]: 0.503 µM
- CC50 [31]: > 100 µM

Structure (SMILES): Cc1[nH]c(/C=N/NC(=O)c2[nH]c3ccc(Br)cc3c2-c2ccccc2)c(C)c1[N+](=O)[O-] [Derivative 3r, (E)-5-Bromo-N′-((3,5-dimethyl-4-nitro-1H-pyrrol-2-yl)methylene)-3-phenyl-1H-indole-2-carbohydrazide]
- GI50 [1]: 2.31 µM
- CC50 [1]: > 100 µM
- GI50 [2]: 3.19 µM
- CC50 [2]: 35.6 µM
- GI50 [3]: 3.34 µM
- CC50 [3]: 34.9 µM
- GI50 [4]: 2.09 µM
- CC50 [4]: 11.7 µM
- GI50 [5]: 2.51 µM
- CC50 [5]: 45.8 µM
- GI50 [6]: 2.46 µM
- CC50 [6]: 26.3 µM
- GI50 [7]: 4.22 µM
- CC50 [7]: 89.5 µM
- CC50 [8]: 7.51 µM
- GI50 [8]: 1.9 µM
- GI50 [9]: 2.41 µM
- CC50 [9]: 26.4 µM
- GI50 [10]: 1.92 µM
- CC50 [10]: 11.6 µM
- GI50 [11]: 2.06 µM
- CC50 [11]: 19.1 µM
- GI50 [12]: 2.37 µM
- CC50 [12]: 33.1 µM
- GI50 [13]: 2.32 µM
- CC50 [13]: 21.2 µM
- GI50 [14]: 1.99 µM
- CC50 [14]: 28.5 µM
- GI50 [15]: 2.11 µM
- CC50 [15]: 22.6 µM
- GI50 [16]: 3.56 µM
- CC50 [16]: 38.7 µM
- GI50 [17]: 2.9 µM
- CC50 [17]: 37.5 µM
- GI50 [18]: 3.83 µM
- GI50 [19]: 1.77 µM
- CC50 [19]: 10.4 µM
- GI50 [20]: 1.89 µM
- CC50 [20]: 9.15 µM
- GI50 [21]: 3.23 µM
- CC50 [21]: 39.2 µM
- GI50 [22]: 2.35 µM
- CC50 [22]: 27.6 µM
- GI50 [23]: 1.7 µM
- CC50 [23]: 15.9 µM
- GI50 [24]: 1.74 µM
- CC50 [24]: 6.73 µM
- GI50 [25]: 5.1 µM
- CC50 [25]: 41.2 µM
- GI50 [26]: 2.85 µM
- CC50 [26]: 45.5 µM
- GI50 [27]: 3.56 µM
- CC50 [27]: 40.5 µM
- GI50 [28]: 2.43 µM
- CC50 [28]: 97.2 µM
- GI50 [29]: 2.74 µM
- CC50 [29]: 30.6 µM
- GI50 [30]: 2.51 µM
- CC50 [30]: 33.5 µM
- GI50 [31]: 1.94 µM
- CC50 [31]: 26.1 µM
